{
  "source": "patent US20150037832A1",
  "about": "“METHODS OF FACILITATING THE BIOCONVERSION OF CRUDE BIODIESEL-DERIVED GLYCEROL BY MICROORGANISMS” (priority 2011, published 2015)",
  "key": {"[1]": {"test_system": "Clostridium pasteurianum ATCC 6013", "test": "Growth (optical density, μmax) and pH profiles of batch cultures", "assay_type": "cell-based", "settings": "for maximum specific growth rate, μmax: exponential log phase, 20 g/L glycerol and/or 10 g/L sugar; for effect on maximum optical density: 2 g/L sodium salt in 25 g/L pure glycerol", "quoted_text": "(§1) Pre-cultures for glycerol utilization experiments were grown in RCM. The growth was monitored using optical density (λ=600 nm) and the cultures were used as inoculum once they reached the mid-exponential phase of growth. 100 mL of Biebl medium with appropriate carbon sources was inoculated with 10% inoculum and the contents were split equally into three in a 75 mL culture flask. All experiments were carried out in batch cultures and in triplicates. The cultures were monitored for growth, substrate utilization and product formation as mentioned earlier.\nThe co-fermentation of sugars was studied using hexose (dextrose) and pentose (D-xylose and L-arabinose) with 20 g/L of pure glycerol at a concentration of 10 g/L of the sugars, maintaining a 2:1 ratio of glycerol and sugars. Cells grown on glycerol or sugar alone were used as controls. […] Acetate and butyrate were studied at concentrations of 2 g/L with an initial glycerol concentration of 25 g/L of pure glycerol. Biotin was supplemented in the media at 0.8 mg/L with an initial concentration of 25 g/L of pure glycerol."}, "[2]": {"test_system": "Clostridium pasteurianum ATCC 6013", "test": "Product yields and substrate utilization of fermentation (HPLC)", "settings": "for effect of addition on butanol / product formation: added to glycerol fermentation; for 1,3-PDO yield / conversion: sole carbon source", "quoted_text": "Freeze dried pure cultures of C. pasteurianum were revived using nutrient rich reinforced clostridal growth media (RCM) and glycerol stock cultures were prepared for future use. […] Pre-culture for glycerol utilization experiments were grown in RCM. The growth was monitored using optical density and the cultures were used as inoculum once they reached mid-exponential phase of growth. The growth experiments were conducted in 75 mL culture flasks containing 40 mL of the media and 5 mL of inoculum. Defined media was used for glycerol utilization. Unless otherwise specified purified glycerol or biodiesel derived crude glycerol were used as the sole carbon source. All experiments were conducted in an anaerobic chamber (95% N2 and 5% H2) at a temperature of 37° C. to ensure oxygen-free conditions.\nas §1\nThe co-fermentation of sugars was studied using hexose (dextrose) and pentose (D-xylose and L-arabinose) with 20 g/L of pure glycerol at a concentration of 10 g/L of the sugars, maintaining a 2:1 ratio of glycerol and sugars. Cells grown on glycerol or sugar alone were used as controls."}, "[3]": {"test_system": "Clostridium pasteurianum ATCC 6013", "test": "Effect of impurities on glycerol fermentation", "assay_type": "cell-based", "settings": "for growth and product yield: salt at 2.5, 5, 7.5 and 10% (w/w) of initial glycerol; for growth and product yield / substrate utilization: 25 g/L pure glycerol; for substrate utilization: fatty acid sodium salt at 5%, 10% and 15% (w/w) of initial substrate", "method": "Defined media was used for glycerol utilization.\nTo study the effect of impurities in crude glycerol, various concentrations of each impurity were added to the media containing 25 g/L pure glycerol. Methanol was added at 2.5 g/L and 5 g/L. Potassium chloride and potassium sulfate were added at 2.5, 5, 7.5 and 10% (w/w) of the initial glycerol concentration. The fatty acids were added in the form of sodium salts of steric acid, oleic acid and linoleic acid at 5, 10 and 15% (w/w) (of initial substrate conc.). The media containing 25 g/L of pure glycerol was used as the control. The effects of fatty acids were also studied by partially purifying the crude glycerol by precipitating the fatty acids using concentrated hydrochloric acid. The crude glycerol was diluted in deionized water at a ratio of 1:3 and hydrochloric acid was added to lower pH to between 2 and 3. At this pH the fatty acids precipitated and were removed by centrifugation at 5000 rpm for 15 minutes. The precipitated fatty acids were later analyzed using NMR by dissolving them in d-DMSO."}, "C. acetobutylicum": {"test_system": "C. acetobutylicum", "settings": "butyrate addition at 2 g/L, reported; cited from earlier work"}, "[4]": {"test_system": "Clostridium pasteurianum ATCC 6013", "method": "The cell membrane was extracted using dichloromethane/methanol mixtures. The membrane extracted in dichloromethane was separated by evaporating the solvents under a gentle nitrogen stream. This dry film of the membrane was used for further analysis.\nThe dry film of the membrane was dissolved in deuterated chloroform for NMR analysis. Synthetic lipids such as Diaplmitoylphosphotidylcholine (DPPC) and Dioleylphosphotidylcholine (DOPC) were used as standards for NMR analysis. The dry films of the membrane lipids were labeled with DPH (500:1) and made into liposomes for analyzing the stability of the membrane by studying the fluorescence anisotropy using a Perkin-Elmer LS50B."}, "[5]": {"settings": "L-arabinose added to glycerol, vs glycerol alone"}, "[6]": {"settings": "endogenously produced butanol, defined media, varied glycerol concentration"}, "[7]": {"settings": "exogenous butanol 2 g/L to 20 g/L, defined media with 50 g/L glucose and RCM"}},
  "note": "Several values for one entry are separate records, joined by “and”; a condition that tells them apart may be missing. Equal entries are not always repeated. Where two headings read alike, the source gives them in different places.",
  "data": [
    {"compound": "O=C[C@H](O)[C@@H](O)[C@H](O)CO", "note": "[D-xylose]", "values": [
      {"measurement": "maximum specific growth rate, μmax", "setting": "[1]", "value": "0.794 ± 0.390", "unit": "day⁻¹"},
      {"measurement": "acetate, 1,3-PDO and ethanol as share of the overall products", "setting": "[2]; D-xylose as sole carbon source", "value": 88, "unit": "%"},
      {"measurement": "product formation", "setting": "[2]; D-xylose as sole carbon source", "value": 0.78, "unit": "g/g"},
      {"measurement": "effect of addition on butanol / product formation", "setting": "[2]", "value": "did not result in an increase in the formation of any of the products"},
      {"measurement": "utilization of D-xylose", "setting": "[2]; addition of D-xylose to glycerol fermentation, 2:1", "value": "25±16", "unit": "%"},
      {"measurement": "D-xylose left unconsumed in the media", "setting": "[2]; co-fermentation of glycerol with xylose", "value": "more than 90%"}
    ]},
    {"compound": "OCC(O)CO", "note": "[Glycerol, glycerol]", "values": [
      {"measurement": "maximum specific growth rate, μmax", "setting": "[1]", "value": "1.562 ± 0.118", "unit": "day⁻¹"},
      {"measurement": "butanol yield", "setting": "[2]; control experiment with glycerol", "value": "22 % (g/g)"},
      {"measurement": "1,3-PDO yield / conversion", "setting": "[2]; control", "value": "20 % (g/g)"}
    ]},
    {"compound": "O=C[C@H](O)[C@@H](O)[C@@H](O)CO", "note": "[L-arabinose]", "values": [
      {"measurement": "maximum specific growth rate, μmax", "setting": "[1]", "value": "0.933 ± 0.054", "unit": "day⁻¹"},
      {"measurement": "ethanol yield", "setting": "[2]; L-arabinose added to glycerol", "value": 0.10, "unit": "g/g"},
      {"measurement": "increase of 1,3-PDO yield", "setting": "[2]; [5]", "value": 65, "unit": "%"},
      {"measurement": "increase of ethanol yield", "setting": "[2]; [5]", "value": 5, "unit": "fold"},
      {"measurement": "1,3-PDO and ethanol as share of overall products", "setting": "[2]; L-arabinose as carbon source", "value": 85, "unit": "%"},
      {"measurement": "effect of addition on butanol / product formation", "setting": "[2]", "value": "does not affect the yield of butanol"},
      {"measurement": "ratio of butanol/1,3-PDO", "setting": "[2]; addition of L-arabinose to glycerol", "value": 0.64},
      {"measurement": "1,3-PDO maximum yield", "setting": "[2]; control, L-arabinose sole carbon source", "value": "36.5 % (g/g)"},
      {"measurement": "1,3-PDO yield / conversion", "setting": "[2]; control", "value": "28 % (g/g)"},
      {"measurement": "Ethanol and 1,3-PDO as share of the products yielded", "setting": "[2]; cultures on arabinose", "value": "~86 % (mol/mol)"},
      {"measurement": "1,3-PDO yield", "setting": "[2]; sugar 10 g/L added as co-substrate to 20 g/L glycerol, with respect to glycerol", "value": 0.33, "unit": "g/g"}
    ]},
    {"compound": "[Cl-].[K+]", "note": "[Potassium chloride]", "values": [
      {"measurement": "growth and product yield", "setting": "[3]", "value": "no detrimental effect on growth and product yield"}
    ]},
    {"compound": "CC(=O)[O-].[Na+]", "note": "[acetate, sodium acetate]", "values": [
      {"measurement": "effect on maximum optical density", "setting": "[1]", "value": "small increase in the maximum optical density"},
      {"measurement": "decrease in 1,3-PDO production", "setting": "[2]", "value": 33, "unit": "%"},
      {"measurement": "increase in butanol formation", "setting": "[2]", "value": "~25% and 23%"}
    ]},
    {"compound": "O=C(O)CCCC[C@@H]1SC[C@@H]2NC(=O)N[C@@H]21", "note": "[biotin]", "values": [
      {"measurement": "increase in butanol formation", "setting": "[2]; supplement (acetate 2 g/L, biotin 0.8 mg/L) in 25 g/L pure glycerol, vs control", "value": "18% and ~25%"}
    ]},
    {"compound": "CCCC(=O)[O-].[Na+]", "note": "[butyrate, sodium butyrate]", "values": [
      {"measurement": "effect on maximum optical density", "setting": "[1]", "value": "slightly lower maximum optical density"},
      {"measurement": "lowering of the maximum optical density", "setting": "[1]; butyrate 2 g/L in 25 g/L pure glycerol", "value": 20, "unit": "%"},
      {"measurement": "increase of butanol production", "setting": "C. acetobutylicum", "value": 1.6, "unit": "folds"},
      {"measurement": "effect of addition on butanol / product formation", "setting": "[2]", "value": "did not increase butanol production"}
    ]},
    {"compound": "CO", "note": "[methanol]", "values": [
      {"measurement": "growth or product formation during the fermentation of glycerol", "setting": "[3]; methanol at 2.5 g/l and 5 g/L in media with 25 g/L pure glycerol", "value": "no reduction in growth or product formation"}
    ]},
    {"compound": "O=S(=O)([O-])[O-].[K+].[K+]", "note": "[potassium sulfate]", "values": [
      {"measurement": "growth and product yield", "setting": "[3]", "value": "no detrimental effect on growth and product yield"}
    ]},
    {"compound": "CCCCC/C=C\\C/C=C\\CCCCCCCC(=O)[O-].[Na+]", "note": "[sodium linoleate]", "values": [
      {"measurement": "substrate utilization", "setting": "[3]", "value": "completely inhibited"}
    ]},
    {"compound": "CCCCCCCC/C=C\\CCCCCCCC(=O)[O-].[Na+]", "note": "[sodium oleate]", "values": [
      {"measurement": "substrate utilization", "setting": "[3]", "value": "not affected"}
    ]},
    {"compound": "CCCCCCCCCCCCCCCCCC(=O)[O-].[Na+]", "note": "[sodium stearate]", "values": [
      {"measurement": "substrate utilization", "setting": "[3]", "value": "not affected"}
    ]},
    {"compound": "butanol", "values": [
      {"measurement": "anisotropy of membrane", "setting": "[4]; [6]", "value": "corresponding increase in anisotropy"},
      {"measurement": "degree of unsaturation of membrane fatty acids", "setting": "[4]; [6]", "value": "a decrease in the degree of unsaturation"},
      {"measurement": "anisotropy of membrane", "setting": "[4]; [7]", "value": "found to decrease"},
      {"measurement": "degree of unsaturation of membrane fatty acids", "setting": "[4]; [7]", "value": "observed to increase"}
    ]}
  ]
}
